Test results from patent US7560471B2, “Indolylpiperidine derivatives as potent antihistaminic and antiallergic agents” (Laboratorios Almirall S.A., priority 2002, dated 2009).

Assays:
histamine-H1 receptors = histamine-H1 receptors (Cavia porcellus, UniProt P31389); test: Histamine-H1 receptor binding assay ([3H]-mepyramine); details: guinea pig cerebellum membranes, 0.7 nM [3H]-mepyramine
Description: (§1) (1) Histamine-H1 Receptor Binding Assay
The study of binding to histamine-H1 receptors was performed in guinea pig cerebellum membranes as described by Chang et al., J. Neurochem, 1979, 32, 1653-1663. Briefly, the membrane suspensions (160 μg/ml) were incubated at 30° C. with 0.7 nM [^3H]-mepyramine and different concentrations of the test compounds in a final volume of 250 μl. Binding reactions were terminated by filtration after 30 min of incubation and the bound radioactivity was determined. The non-specific binding was measured in the presence of 10 μM of promethazine. The affinity of each test compound to the receptor was determined by using at least six different concentrations run in duplicate. IC50 values were obtained by non-linear regression by use of SAS on a DEC AXP computer.

serotonin-5HT2 receptors = biological target: T1, serotonin-5HT2 receptors (Homo sapiens, UniProt P28223); test: Serotonin-5HT2 receptor binding assay (3H-Ketanserin); details: human frontal cerebral cortex membranes, 1 nM 3H-Ketanserin; read-out: 5HT-2
T1 construct: performed in human frontal cerebral cortex membranes; from tissue; host or cells: human frontal cerebral cortex membranes
T1 sequence (P28223 whole entry): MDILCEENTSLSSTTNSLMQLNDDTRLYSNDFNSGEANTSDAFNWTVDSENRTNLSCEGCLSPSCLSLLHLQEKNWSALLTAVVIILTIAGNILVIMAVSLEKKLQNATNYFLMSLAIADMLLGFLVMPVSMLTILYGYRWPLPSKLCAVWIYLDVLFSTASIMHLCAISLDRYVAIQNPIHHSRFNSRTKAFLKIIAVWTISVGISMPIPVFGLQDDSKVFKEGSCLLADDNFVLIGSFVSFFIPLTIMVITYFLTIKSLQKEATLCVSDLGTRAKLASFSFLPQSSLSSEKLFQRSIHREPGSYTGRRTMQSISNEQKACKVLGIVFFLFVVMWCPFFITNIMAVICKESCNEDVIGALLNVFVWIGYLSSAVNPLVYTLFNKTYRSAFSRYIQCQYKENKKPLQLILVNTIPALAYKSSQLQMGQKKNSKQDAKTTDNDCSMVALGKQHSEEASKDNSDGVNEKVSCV
Description: as §1
(3) Serotonin-5HT2 Receptor Binding Assay
The study of binding to serotonin-5HT2 receptors was performed in human frontal cerebral cortex membranes as described previously (Pazos et al., Eur. J. of Pharmacol, 1985, 106, 531-538). Briefly, the membrane suspensions (170 μg/ml) were incubated at 37° C. with 1 nM 3H-Ketanserin and different concentrations of the test compounds in a final volume of 250 μl. Binding reactions were terminated by filtration after 30 minutes of incubation under constant shaking and the bound radioactivity was measured. The non-specific binding was estimated in the presence of 10 μM mianserin. The affinity of each test compound to the receptor was determined by using at least six different concentrations run in duplicate. IC50 values were calculated by non-linear regression using SAS.

[1] = tested on: histamine-induced papule (skin vascular permeability); test: Histamine-induced skin vascular permeability in rats; format: in vivo, rat; details: male Wistar rats, oral, 4 h after administration, inhibition of papule area vs vehicle
Description: as §1
(2) Histamine-Induced Skin Vascular Permeability in Rats
Male Wistar rats (180-210 g) were treated orally with the test compound or vehicle. Either one, four, eight or 24 hours later the rats were lightly anaesthetised with ether and a cutaneous reaction was induced by two intradermal injections of 50 μl of histamine (100 μg/ml) onto the back, followed by an intravenous injection of 3 ml/kg of Evan's Blue (5 mg/ml), both dissolved in saline. Sixty minutes later, the rats were killed by cervical dislocation and the back skin dissected free. The diameter (in millimetres) of the papule was measured in two directions and the area was calculated. Results are given as the % of inhibition at a given dose compared with the vehicle treated group.

Sequence of histamine-H1 receptors (P31389 whole entry): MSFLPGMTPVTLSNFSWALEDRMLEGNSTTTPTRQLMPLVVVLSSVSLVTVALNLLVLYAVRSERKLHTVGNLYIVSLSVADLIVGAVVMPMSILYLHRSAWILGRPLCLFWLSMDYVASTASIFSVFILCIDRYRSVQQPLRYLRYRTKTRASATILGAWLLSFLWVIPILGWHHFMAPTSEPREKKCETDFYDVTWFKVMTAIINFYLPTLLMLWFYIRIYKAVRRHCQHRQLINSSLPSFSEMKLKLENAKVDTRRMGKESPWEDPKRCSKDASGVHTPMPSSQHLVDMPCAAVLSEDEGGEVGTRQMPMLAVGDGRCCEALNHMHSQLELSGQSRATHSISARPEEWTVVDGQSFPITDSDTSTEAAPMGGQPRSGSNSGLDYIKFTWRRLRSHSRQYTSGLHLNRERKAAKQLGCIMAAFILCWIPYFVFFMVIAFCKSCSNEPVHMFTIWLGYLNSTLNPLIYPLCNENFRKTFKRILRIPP

Compound | IC50 (histamine-H1 receptors) | IC50 (serotonin-5HT2 receptors) | papule (4h) % inh a 1 mg/Kg [1]
CCOCCn1cc(C2CCN(Cc3ccc(OC)c(C(=O)O)c3)CC2)c2ccccc21 [Example 1, 5-{4-[1-(2-ethoxyethyl)-1H-indol-3-yl]piperidin-1-ylmethyl}-2-methoxybenzoic acid] | 145 nM | 5350 nM | 88%
COCCn1cc(C2CCN(Cc3ccc(OC)c(C(=O)O)c3)CC2)c2ccccc21 [Example 2, 2-methoxy-5-{4-[1-(2-methoxyethyl)-1H-indol-3-yl]piperidin-1-ylmethyl}benzoic acid] | 470 nM | > 10000 nM | 96%
CCCCn1cc(C2CCN(Cc3ccc(OC)c(C(=O)O)c3)CC2)c2ccccc21 [Example 3, 5-[4-(1-butyl-1H-indol-3-yl)-piperidin-1-ylmethyl]-2-methoxybenzoic acid] | 130 nM | 4500 nM | 100%
CCOCCn1cc(C2CCN(Cc3ccc(OC)c(C(=O)O)c3)CC2)c2ccc(F)cc21 [Example 4, 5-{4-[1-(2-ethoxyethyl)-6-fluoro-1H-indol-3-yl]piperidin-1-ylmethyl}-2-methoxybenzoic acid] | 160 nM | 4300 nM | 89%
COCCn1cc(C2CCN(Cc3ccc(OC)c(C(=O)O)c3)CC2)c2ccc(F)cc21 [Example 5, 5-{4-[6-fluoro-1-(2-methoxyethyl)-1H-indol-3-yl]piperidin-1-ylmethyl}-2-methoxybenzoic acid] | 245 nM | > 10000 nM | 96%
